We go through 24 compounds from patent US20240132431A1, “METHOD FOR ALKYLATING ACIDIC FUNCTIONAL GROUP” (Chugai Seiyaku Kabushiki Kaisha, priority 2021, published 2024).

The target of the assay is T1, Bcl-2 protein (Recombinant Human Bcl-2 Protein) (Homo sapiens, UniProt P10415).
T1 construct: purchased Novus NBP2-34889
Description: Binding evaluation of mixture library compounds to Bcl-2 using AS-MS (affinity selection mass spectrometry). The conditions noted are these: for ASMS ratio (%) n = 1: replicate n = 1; for ASMS ratio (%) n = 1 / ASMS ratio (%) n = 2: ASMS Ratio(%)=(A−C)/B×100; for ASMS ratio (%) n = 2: replicate n = 2. The gist of the method: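 Readout is ASMS Ratio (%), (A−C)/B×100, from reversed-phase LC/MS of SEC-passed extracts, with protein-free unfiltered standard (B) and protein-free SEC blank (C). Recombinant human Bcl-2 at 20 μM final met ~1200 pooled compounds at […] each for 1 h, 23° C., dark, in Tris-HCl pH 7.4 buffer.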

Where [1] appears, read: AS-MS on the mixture of 1200 library compounds.
Setting [2] is: AS-MS, mixture of 1200 compounds, Bcl-2.

T1 sequence (P10415 whole entry): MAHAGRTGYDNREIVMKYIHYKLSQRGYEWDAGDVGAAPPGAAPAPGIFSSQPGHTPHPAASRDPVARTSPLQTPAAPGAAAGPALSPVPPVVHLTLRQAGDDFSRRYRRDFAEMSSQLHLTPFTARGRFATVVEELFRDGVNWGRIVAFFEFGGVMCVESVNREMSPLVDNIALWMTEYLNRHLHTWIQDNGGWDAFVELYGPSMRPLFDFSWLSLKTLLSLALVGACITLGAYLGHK

As for `CCOc1cccc(-c2cnn(-c3cc(C(=O)N4CCN(c5ccc(C(=O)NS(=O)(=O)c6ccc(NCCSc7ccccc7)c([N+](=O)[O-])c6)nn5)CC4)cc(C(F)(F)F)c3)c2)c1` [B2Q021-01, 6-[4-[3-[4-(3-Ethoxyphenyl)pyrazol-1-yl]-5-(trifluoromethyl)benzoyl]piperazin-1-yl]-N-[3-nitro-4-(2-phenylsulfanylethylamino)phenyl]sulfonylpyridazine-3-carboxamide], for the setting “AS-MS, mixture library, Bcl-2”, the “ASMS ratio (%) n = 1” value is 0.0% and the “ASMS ratio (%) n = 2” value stood at 0.0%.

With `CCOc1cccc(-c2ccccc2CN2CCN(c3ccc(C(=O)Nc4ccc(OC)cc4)nn3)CC2)c1` [B1O071-01, 6-[4-[[2-(3-Ethoxyphenyl)phenyl]methyl]piperazin-1-yl]-N-(4-methoxyphenyl)pyridazine-3-carboxamide], under setting [1], the “ASMS ratio (%) n = 1” value is recorded as 2.9% and the “ASMS ratio (%) n = 2” value is −1.1%.

As to `CCOc1cncc(C#Cc2cncc(C(=O)N3CCN(c4ccc(C(=O)NS(=O)(=O)c5ccc(NCCSc6ccccc6)c([N+](=O)[O-])c5)nn4)CC3)c2)c1` [B2Q010-01, 6-[4-[5-[2-(5-Ethoxypyridin-3-yl)ethynyl]pyridine-3-carbonyl]piperazin-1-yl]-N-[3-nitro-4-(2-phenylsulfanylethylamino)phenyl]sulfonylpyridazine-3-carboxamide], where the note is “AS-MS, mixture library, Bcl-2”, the “ASMS ratio (%) n = 1” value came to 13.3% and the “ASMS ratio (%) n = 2” value was found to be 8.9%.

Consider `CCOc1cccc(-c2ccc(C(C)N3CCN(c4ccc(C(=O)Nc5ccc(OC)cc5)cc4)CC3)cc2)c1` (centres unmarked) [B1O097-01, 4-[4-[1-[4-(3-Ethoxyphenyl)phenyl]ethyl]piperazin-1-yl]-N-(4-methoxyphenyl)benzamide], for which, under setting [1], the “ASMS ratio (%) n = 1” value stood at 4.2% and the “ASMS ratio (%) n = 2” value was 2.2%.

For the compound `CCOc1cccc(-c2cc(C(=O)N3CCN(c4ccc(C(=O)N(C)CC56CC7CC(CC(C7)C5)C6)cc4)CC3)cc(C(C)(C)C)c2)c1` [B3A037-01, N-(1-Adamantylmethyl)-4-[4-[3-tert-butyl-5-(3-ethoxyphenyl)benzoyl]piperazin-1-yl]-N-methylbenzamide], under setting [1], the “ASMS ratio (%) n = 1” value came out at 0.0% and the “ASMS ratio (%) n = 2” value is listed as 0.0%.

As for `CCOc1cncc(C#Cc2ccccc2CN2CCN(c3ccc(C(=O)NS(=O)(=O)c4ccc(NCCSc5ccccc5)c([N+](=O)[O-])c4)cc3)CC2)c1` [B2Q070-01, 4-[4-[[2-[2-(5-Ethoxypyridin-3-yl)ethynyl]phenyl]methyl]piperazin-1-yl]-N-[3-nitro-4-(2-phenylsulfanylethylamino)phenyl]sulfonylbenzamide], where the note is “AS-MS, mixture library, Bcl-2”, the “ASMS ratio (%) n = 1” value amounted to 14.3% and the “ASMS ratio (%) n = 2” value was −9.0%.

Turning to `CCOc1cccc(-c2cc(CN3CCN(c4ccc(C(=O)NS(=O)(=O)C(C)(C)C)cc4)CC3)cc(OC(F)(F)F)c2)c1` [B2L063-01, N-tert-Butylsulfonyl-4-[4-[[3-(3-ethoxyphenyl)-5-(trifluoromethoxy)phenyl]methyl]piperazin-1-yl]benzamide], the “ASMS ratio (%)” value reads like this: (n = 1) 0.0%; (n = 2) 0.0%.

`CCOc1cccc(-c2cc(CN3CCN(c4ccc(C(=O)NS(C)(=O)=O)cc4)CC3)cc(C(F)(F)F)c2)c1` [B2I061-01, 4-[4-[[3-(3-Ethoxyphenyl)-5-(trifluoromethyl)phenyl]methyl]piperazin-1-yl]-N-methylsulfonylbenzamide]: the “ASMS ratio (%)” value is, setting by setting: (n = 1) −0.8%; (n = 2) 0.5%.

Regarding `CCOc1cncc(-c2ccccc2CN2CCN(c3ccc(C(=O)N(C)CC45CC6CC(CC(C6)C4)C5)cc3)CC2)c1` [B3A046-01, N-(1-Adamantylmethyl)-4-[4-[[2-(5-ethoxypyridin-3-yl)phenyl]methyl]piperazin-1-yl]-N-methylbenzamide], under setting [1], the “ASMS ratio (%) n = 1” value worked out at 1.5% and the “ASMS ratio (%) n = 2” value turned out to be 3.6%.

As for `CCOc1cccc(-c2ccc(CN3CCN(c4ccc(C(=O)N(C)CC56CC7CC(CC(C7)C5)C6)nn4)CC3)c(OC)c2)c1` [B3A079-01, N-(1-Adamantylmethyl)-6-[4-[[4-(3-ethoxyphenyl)-2-methoxyphenyl]methyl]piperazin-1-yl]-N-methylpyridazine-3-carboxamide], under setting [1], the “ASMS ratio (%) n = 1” value is −5.8% and the “ASMS ratio (%) n = 2” value worked out at 5.4%.

`CCOc1cncc(-c2ccc(C(=O)N3CCN(c4ccc(C(=O)NCC56CC7CC(CC(C7)C5)C6)nn4)CC3)c3ccccc23)c1` [B1A014-01, N-(1-Adamantylmethyl)-6-[4-[4-(5-ethoxypyridin-3-yl)naphthalene-1-carbonyl]piperazin-1-yl]pyridazine-3-carboxamide]: under setting [2], the “ASMS ratio (%) n = 1” value is 8.1% and the “ASMS ratio (%) n = 2” value is reported as 0.0%.

Consider `CCOc1cncc(-c2csc(CN3CCN(c4ccc(C(=O)NS(=O)(=O)CCC(F)(F)F)nn4)CC3)c2)c1` [B2N094-01, 6-[4-[[4-(5-Ethoxypyridin-3-yl)thiophen-2-yl]methyl]piperazin-1-yl]-N-(3,3,3-trifluoropropylsulfonyl)pyridazine-3-carboxamide], for which the “ASMS ratio (%)” value (n = 1) worked out at 0.0% and the “ASMS ratio (%)” value (n = 2) worked out at 0.0%.

Take `CCOc1cccc(-c2cc(CN3CCN(c4ccc(C(=O)NS(=O)(=O)c5ccc(NCCSc6ccccc6)c([N+](=O)[O-])c5)cc4)CC3)cc(OCC)c2)c1` [B2Q055-01, 4-[4-[[3-Ethoxy-5-(3-ethoxyphenyl)phenyl]methyl]piperazin-1-yl]-N-[3-nitro-4-(2-phenylsulfanylethylamino)phenyl]sulfonylbenzamide]: where the note is “AS-MS, mixture library, Bcl-2”, the “ASMS ratio (%) n = 1” value was 9.0% and the “ASMS ratio (%) n = 2” value is recorded as −8.3%.

Consider `CCOc1cccc(-c2cc(CN3CCN(c4ccc(C(=O)N(C)CC56CC7CC(CC(C7)C5)C6)nn4)CC3)cc(OCC)c2)c1` [B3A081-01, N-(1-Adamantylmethyl)-6-[4-[[3-ethoxy-5-(3-ethoxyphenyl)phenyl]methyl]piperazin-1-yl]-N-methylpyridazine-3-carboxamide], for which, under setting [1], the “ASMS ratio (%) n = 1” value came to 13.4% and the “ASMS ratio (%) n = 2” value was −14.2%.

For the compound `CCOc1cccc(C#Cc2ccccc2C(=O)N2CCN(c3ccc(C(=O)NS(=O)(=O)C(C)(C)C)nn3)CC2)c1` [B2L007-01, N-tert-Butylsulfonyl-6-[4-[2-[2-(3-ethoxyphenyl)ethynyl]benzoyl]piperazin-1-yl]pyridazine-3-carboxamide], the “ASMS ratio (%)” value reads like this: (n = 1) 0.0%; (n = 2) −1.0%.

For the compound `CCOc1cccc(C#Cc2ccccc2CN2CCN(c3ccc(C(=O)NS(=O)(=O)c4ccc(NCCSc5ccccc5)c(C(F)(F)F)c4)nn3)CC2)c1` [B2R095-01, 6-[4-[[2-[2-(3-Ethoxyphenyl)ethynyl]phenyl]methyl]piperazin-1-yl]-N-[4-(2-phenylsulfanylethylamino)-3-(trifluoromethyl)phenyl]sulfonylpyridazine-3-carboxamide], the “ASMS ratio (%)” value is listed as 42.2% (n = 1) and 5.5% (n = 2).

For `CCOc1cccc(C#Cc2cc(C(=O)N3CCN(c4ccc(C(=O)NS(C)(=O)=O)cc4)CC3)cc(C(F)(F)F)c2)c1` [B2I041-01, 4-[4-[3-[2-(3-Ethoxyphenyl)ethynyl]-5-(trifluoromethyl)benzoyl]piperazin-1-yl]-N-methylsulfonylbenzamide], the “ASMS ratio (%)” value reads like this: (n = 1) 0.0%; (n = 2) 0.0%.

Take `CCOc1cccc(C#Cc2ccccc2C(=O)N2CCN(c3ccc(C(=O)NS(=O)(=O)C(C)(C)C)cc3)CC2)c1` [B2L029-01, N-tert-Butylsulfonyl-4-[4-[2-[2-(3-ethoxyphenyl)ethynyl]benzoyl]piperazin-1-yl]benzamide]: the “ASMS ratio (%)” value (n = 1) was determined as 0.0%.

Regarding “4-[4-[3-[2-(3-Ethoxyphenyl)phenyl]propanoyl]piperazin-1-yl]-N-propylbenzamide [B1M068-01]”, under setting [2], the “ASMS ratio (%) n = 1” value was 1.1% and the “ASMS ratio (%) n = 2” value worked out at 0.0%.

`CCOc1cncc(-c2ccc(CN3CCN(c4ccc(C(=O)NS(C)(=O)=O)cc4)CC3)c3ccccc23)c1` [B2I066-01, 4-[4-[[4-(5-Ethoxypyridin-3-yl)naphthalen-1-yl]methyl]piperazin-1-yl]-N-methylsulfonylbenzamide]: the “ASMS ratio (%)” value was 0.0% (n = 1) and 0.0% (n = 2).

For the compound `CCOc1cncc(-c2ccc(CN3CCN(c4ccc(C(=O)NCC(F)(F)F)nn4)CC3)c(OC)c2)c1` [B1K080-01, 6-[4-[[4-(5-Ethoxypyridin-3-yl)-2-methoxyphenyl]methyl]piperazin-1-yl]-N-(2,2,2-trifluoroethyl)pyridazine-3-carboxamide], under setting [2], the “ASMS ratio (%) n = 1” value came to 0.0% and the “ASMS ratio (%) n = 2” value amounted to 0.0%.

In the case of “6-[4-[3-tert-Butyl-5-(3-ethoxyphenyl)benzoyl]piperazin-1-yl]-N-propylpyridazine-3-carboxamide [B1M060-01]”, under setting [2], the “ASMS ratio (%) n = 1” value stood at 0.0% and the “ASMS ratio (%) n = 2” value stood at 0.0%.

Turning to `CCOc1cncc(C#Cc2ccccc2CN2CCN(c3ccc(C(=O)N(CC)CC)cc3)CC2)c1` [B4J070-01], where the note is “AS-MS, mixture library, Bcl-2”, the “ASMS ratio (%) n = 1” value amounted to 0.0% and the “ASMS ratio (%) n = 2” value amounted to 0.0%.

On to `CCOc1cccc(C#Cc2ccccc2C(=O)N2CCN(c3ccc(C(=O)NS(=O)(=O)c4ccc(NCCSc5ccccc5)c([N+](=O)[O-])c4)nn3)CC2)c1` [B2Q007-01, 6-[4-[2-[2-(3-Ethoxyphenyl)ethynyl]benzoyl]piperazin-1-yl]-N-[3-nitro-4-(2-phenylsulfanylethylamino)phenyl]sulfonylpyridazine-3-carboxamide], for which, for the setting “AS-MS, mixture library, Bcl-2”, the “ASMS ratio (%) n = 1” value worked out at 4.2% and the “ASMS ratio (%) n = 2” value is recorded as −8.3%.
